Reference: patent US4826844A, “Substituted 1-(aralkyl-piperazinoalkyl) cycloalkanols” (American Home Products Corporation, priority 1987, dated 1989)

Columns and labels:
5-HT1A receptor = target: T1, 5-HT1A receptor (Rattus norvegicus, UniProt P19327); assay: inhibition of [3H] 8-hydroxy-2-(di-n-propylamino)tetralin binding at 5-HT1A receptor sites; details: rat hippocampal tissue
T1 construct: from tissue; host or cells: rat hippocampus
T1 sequence (P19327 1-422): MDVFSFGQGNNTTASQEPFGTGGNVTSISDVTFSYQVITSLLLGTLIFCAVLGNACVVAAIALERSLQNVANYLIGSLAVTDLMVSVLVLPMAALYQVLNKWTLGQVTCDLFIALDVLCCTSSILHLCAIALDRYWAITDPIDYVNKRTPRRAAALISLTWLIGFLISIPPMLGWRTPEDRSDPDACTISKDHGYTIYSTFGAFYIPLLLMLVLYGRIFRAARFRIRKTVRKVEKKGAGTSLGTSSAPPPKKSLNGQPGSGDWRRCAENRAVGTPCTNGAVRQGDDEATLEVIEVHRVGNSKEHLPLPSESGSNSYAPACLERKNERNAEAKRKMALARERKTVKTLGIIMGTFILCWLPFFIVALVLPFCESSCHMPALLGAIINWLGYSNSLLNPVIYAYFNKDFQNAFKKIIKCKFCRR
Source text: 8-hydroxy-2-(di-n-propylamino)tetralin binding at 5-HT binding sites in rat hippocampal tissue, following the procedure of Hall et al., J. Neurochem., 44 1685 (1985).

[1] = system: synaptosomial uptake of serotonin; assay: inhibition of synaptosomial uptake of serotonin (14C-5-HT); format: biochemical; details: synaptosomes
Source text: (§1) The pharmacological test data obtained for a representative number of compounds of this invention in accordance with the standard experimental test procedures disclosed above appear in the following table: […]

dopamine D2 receptors = target: T2, dopamine D2 receptors (Rattus norvegicus, UniProt P61169); assay: inhibition of 3H-haloperidol binding at dopamine D2 receptors in homogenized limbic brain tissue; details: for inhibition at 1 µM: read-out: Receptor Binding D2 % Inhibition at 1 μM
T2 construct: found in homogenized limbic brain tissue; from tissue; host or cells: homogenized limbic brain tissue
T2 sequence (P61169 whole entry): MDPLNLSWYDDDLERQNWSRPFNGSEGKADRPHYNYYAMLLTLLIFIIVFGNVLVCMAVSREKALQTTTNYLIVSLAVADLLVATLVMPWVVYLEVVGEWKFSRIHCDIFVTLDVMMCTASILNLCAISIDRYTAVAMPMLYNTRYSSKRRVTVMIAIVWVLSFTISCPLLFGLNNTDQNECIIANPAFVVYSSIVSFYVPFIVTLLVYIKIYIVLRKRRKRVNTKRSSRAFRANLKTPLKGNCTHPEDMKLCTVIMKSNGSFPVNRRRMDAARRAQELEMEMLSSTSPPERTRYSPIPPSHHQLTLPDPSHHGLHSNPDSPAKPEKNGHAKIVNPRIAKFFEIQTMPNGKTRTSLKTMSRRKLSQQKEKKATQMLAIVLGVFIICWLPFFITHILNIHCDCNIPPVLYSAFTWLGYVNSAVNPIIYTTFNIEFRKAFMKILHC
Source text: The actual percentage reduction of ^3 H-haloperidol binding is reported infra and the larger the number, the greater the potential for dopamine D2 receptor binding and antipsychotic activity.

[2] = system: synaptosomial uptake of norepinephrine; assay: inhibition of synaptosomial uptake of norepinephrine (3H-NE); format: biochemical; details: for IC50 / Neuronal Uptake NE % Inhibition at 10 μM: synaptosomes; for IC50: read-out: Neuronal Uptake NE IC50
Source text: as §1

SMILES | inhibition at 1 µM (5-HT1A receptor) [%] | inhibition at 1 µM (dopamine D2 receptors; 3H-haloperidol) [%] | further results
COc1cccc(C(CCN2CCN(Cc3ccccc3)CC2)C2(O)CCCCC2)c1 (stereo not drawn) [Example 1, 1-[1-(3-Methoxyphenyl)-3-[4-(phenylmethyl)-1-piperazinyl]propyl]cyclohexanol] | – | – | Ki (5-HT1A receptor): 0.01 µM; affinity at 5-HT1A receptor binding sites (in words) (5-HT1A receptor): strong affinity at 5-HT1A receptor binding sites; IC50 ([1]; read-out: Neuronal Uptake 5HT IC50): 0.39 µM; Ki (dopamine D2 receptors; 3H-haloperidol, read-out: Receptor Binding D2 Ki): 0.209 µM; IC50 [2]: 2.03 µM
COc1cccc(C(CCN2CCN(c3ncccn3)CC2)C2(O)CCCCC2)c1 (stereo not drawn) [Example 2, 1-[1-(3-Methoxyphenyl)-3-[4-(2-pyrimidinyl)-1-piperazinyl]propyl]cyclohexanol] | 78 | 59 | –
COc1cccc(C(CCN2CCN(c3cncc(Cl)n3)CC2)C2(O)CCCCC2)c1 (stereo not drawn) [Example 3, 1-[3-[4-(6-Chloro-2-pyrazinyl)-1-piperazinyl]-1-(3-methoxyphenyl)propyl]cyclohexanol] | – | 41 | Ki (5-HT1A receptor): 0.122 µM
COc1cccc(C(CCN2CCN(Cc3cccc(Cl)c3)CC2)C2(O)CCCCC2)c1 (stereo not drawn) [Example 4, 1-[3-[4-[(3-Chlorophenyl)methyl]-1-piperazinyl]-1-(3-methoxyphenyl)propyl]cyclohexanol] | 66 | 90 | dopamine D2 receptor affinity / binding potential (in words) (dopamine D2 receptors): typical D2 binding potential
COc1cccc(C(CCN2CCN(Cc3ccc(Cl)cc3)CC2)C2(O)CCCCC2)c1 (stereo not drawn) [Example 5, 1-[3-[4-[(4-Chlorophenyl)methyl]-1-piperazinyl]-1-(3-methoxyphenyl)propyl]cyclohexanol] | 97 | 51 | –
COc1cccc(C(CCN2CCN(Cc3ccccc3OC)CC2)C2(O)CCCCC2)c1 (stereo not drawn) [Example 6, 1-[1-(3-Methoxyphenyl)-3-[4-[(2-methoxyphenyl)methyl]-1-piperazinyl]propyl]cyclohexanol] | 93 | 91 | –
COc1cccc(C(CCN2CCN(Cc3cccc(F)c3)CC2)C2(O)CCCCC2)c1 (stereo not drawn) [Example 7, 1-[3-[4-[(3-Fluorophenyl)methyl]-1-piperazinyl]-1-(3-methoxyphenyl)propyl]cyclohexanol] | 93 | 89 | –
COc1ccc(C(CCN2CCN(Cc3ccccc3)CC2)C2(O)CCCCC2)cc1 (stereo not drawn) [Example 8, 1-[1-(4-Methoxyphenyl)-3-[4-(phenylmethyl)-1-piperazinyl]propyl]cyclohexanol] | 99 | 55 | Neuronal Uptake 5HT % Inhibition at 10 μM [1]: 67%; IC50 [2]: 0.61 µM
COc1ccc(C(CCN2CCN(c3cncc(Cl)n3)CC2)C2(O)CCCCC2)cc1 (stereo not drawn) [Example 9, 1-[3-[4-(6-Chloro-2-pyrazinyl)-1-piperazinyl]-1(4-methoxyphenyl)propyl]cyclohexanol] | 57 | 15 | –
COc1ccc(C(CCN2CCN(Cc3cccc(OC)c3)CC2)C2(O)CCCCC2)cc1 (stereo not drawn) [Example 10] | 99 | 73 | –
COc1ccc(C(CCN2CCN(Cc3cccc(C(F)(F)F)c3)CC2)C2(O)CCCCC2)cc1 (stereo not drawn) [Example 11, 1-[1-(4-Methoxyphenyl)-3-[4-[[3-(trifluoromethyl)phenyl]methyl]-1-piperazinyl]propyl]cyclohexanol] | 100 | 100 | dopamine D2 receptor affinity / binding potential (in words) (dopamine D2 receptors): typical D2 binding potential
COc1ccc(C(CCN2CCN(Cc3cccc(Cl)c3)CC2)C2(O)CCCCC2)cc1 (stereo not drawn) [Example 12, 1-[3-[4-[(3-Chlorophenyl)methyl]-1-piperazinyl]-1-(4-methoxyphenyl)propyl]cyclohexanol] | 100 | 95 | –
COc1ccc(C(CCN2CCN(Cc3ccccc3OC)CC2)C2(O)CCCCC2)cc1 (stereo not drawn) [Example 13] | 93 | 77 | –
COc1ccc(C(CCN2CCN(Cc3ccc(C(F)(F)F)cc3)CC2)C2(O)CCCCC2)cc1 (stereo not drawn) [Example 14, 1-[1-(4-Methoxyphenyl)-3-[4-[[4-(trifuloromethyl)phenyl]methyl]-1-piperazinyl]propyl]cyclohexanol] | 63 | 25 | –
COc1cccc(C(CN2CCN(Cc3ccccc3)CC2)C2(O)CCCCC2)c1 (stereo not drawn) [Example 15, 1-[1-(3-Methoxyphenyl)-2-[4-(phenylmethyl)-1-piperazinyl]ethyl]cyclohexanol] | 91 | 90 | –
COc1cccc(C(CN2CCN(c3cccc(Cl)c3)CC2)C2(O)CCCCC2)c1 (stereo not drawn) [Example 18] | 97 | 39 | Neuronal Uptake 5HT % Inhibition at 10 μM [1]: 62%; Neuronal Uptake NE % Inhibition at 10 μM [2]: 38%
OC1(C(CN2CCN(c3cccc(Cl)c3)CC2)c2cccc(Cl)c2)CCCCC1 (stereo not drawn) [Example 19, 1-[1-(3-Chlorophenyl)-2-[4-(3-chlorophenyl)-1-piperazinyl]ethyl]cyclohexanol] | 94 | 32 | –
COc1ccc(C(CCN2CCN(c3ncccn3)CC2)C2(O)CCCCC2)cc1 (stereo not drawn) [Example 24] | – | 11 | –
CN1CCN(CC(c2cccc(Cl)c2)C2(O)CCCCC2)CC1 (stereo not drawn) [Example 26, 1-[1-(3-Chlorophenyl)-2-(4-methyl-1-piperazinyl)ethyl]cyclohexanol] | 0 | 26 | Neuronal Uptake 5HT % Inhibition at 10 μM [1]: 33%; antidepressant activity by inhibition of synaptosomial uptake of norepinephrine and/or serotonin (in words) [2]: selective antidepressant activity; IC50 [2]: 0.18 µM
CN1CCN(CC(c2cccc(C(F)(F)F)c2)C2(O)CCCCC2)CC1 (stereo not drawn) [Example 27, 1-[2-(4-Methyl-1-piperazinyl)-1-[3-(trifluoromethyl)phenyl]ethyl]cyclohexanol] | 5 | 0 | Neuronal Uptake 5HT % Inhibition at 10 μM [1]: 0%; Neuronal Uptake NE % Inhibition at 10 μM [2]: 86%; antidepressant activity by inhibition of synaptosomial uptake of norepinephrine and/or serotonin (in words) [2]: selective antidepressant activity
